From patent publication US20110152166A1, “METHOD OF MODULATION OF PROTEIN PHOSPHORYLATION-DEPENDENT CONFORMATIONAL TRANSITIONS WITH LOW MOLECULAR WEIGHT COMPOUNDS” (priority 2006, published 2011)
Ends that are not written are not given here.

How the values were obtained:
[1] = molecular target: T1, PKCζ (Homo sapiens, UniProt Q05513); assay: AGC kinase panel activity assay (MBP); assay type: biochemical; conditions: for PKCξ (%) activity: 1% DMSO = 100%
T1 construct: deuteron uptake in a full-length AGC kinase; For this analysis we chose PKCζ; made in house; host or cells: HEK293
T1 sequence (Q05513 1-592): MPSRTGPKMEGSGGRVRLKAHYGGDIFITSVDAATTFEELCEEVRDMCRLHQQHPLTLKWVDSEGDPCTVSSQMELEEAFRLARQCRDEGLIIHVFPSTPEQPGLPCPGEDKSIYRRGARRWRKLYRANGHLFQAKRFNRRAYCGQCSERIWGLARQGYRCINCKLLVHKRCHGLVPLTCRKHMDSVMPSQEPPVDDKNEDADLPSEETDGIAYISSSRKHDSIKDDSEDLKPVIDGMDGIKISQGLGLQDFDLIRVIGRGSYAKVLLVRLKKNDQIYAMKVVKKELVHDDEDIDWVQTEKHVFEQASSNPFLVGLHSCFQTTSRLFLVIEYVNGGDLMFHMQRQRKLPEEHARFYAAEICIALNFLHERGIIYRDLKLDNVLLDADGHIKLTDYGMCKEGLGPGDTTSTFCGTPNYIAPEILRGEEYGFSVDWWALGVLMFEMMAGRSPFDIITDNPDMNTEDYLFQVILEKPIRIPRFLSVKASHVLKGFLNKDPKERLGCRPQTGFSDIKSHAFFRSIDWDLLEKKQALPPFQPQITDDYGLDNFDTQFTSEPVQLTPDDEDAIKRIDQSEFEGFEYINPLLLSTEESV
Method: Protein kinase activity tests were performed essentially as previously described (Balendran et al., 2000; Biondi et al., 2000; Biondi et al., 2001). Substrates used were either MBP (for PKCζ or polypeptides (Crosstide for PKB, S6K, SGK and PRK2; T308tide for PDK1, and Kemptide for PKA). PKA (Sigma) was measured in the presence of 100 μM cAMP. Alternatively, assays were performed in a 96 well format, aliquots spotted on p81 phosphocellulose papers (Whatmann), washed in 0.01% phosphoric acid, dried, and then exposed and analysed using Phospholmager technology (Storm, Molecular Dynamics). Activity measurements were performed in duplicates with less than 10% difference between duplicate pairs. Experiments were repeated at least twice, although most of the experiments were repeated multiple times, with similar results.
Activity assays for each kinase were performed as described in Materials and Methods in the presence of 1% DMSO (100%). Except PKA, all protein kinases were produced as a GST-fusion. S6K1, PKBα, SGK mutants used were S6K1-T2-[Thr412Glu], PKBa[Ser473Asp] and ΔN-SGK[Ser422Asp].

[2] = molecular target: T2, GST-PDK1 [Val127Thr] (Homo sapiens, UniProt O15530, V127T); assay: PDK1 activity assay with T308tide; assay type: biochemical; conditions: for AC50 / Max. activity: GST-PDK1 [Val127Thr]; for activation of PDK1 Val127Thr mutant: Val127 replaced by Thr
T2 construct: different protein constructs, comprising the full length protein or the catalytic domain alone; made in house; host or cells: HEK293 cells (pEBG-2T-PDK1 mutant)
T2 sequence (O15530 1-556 V127T): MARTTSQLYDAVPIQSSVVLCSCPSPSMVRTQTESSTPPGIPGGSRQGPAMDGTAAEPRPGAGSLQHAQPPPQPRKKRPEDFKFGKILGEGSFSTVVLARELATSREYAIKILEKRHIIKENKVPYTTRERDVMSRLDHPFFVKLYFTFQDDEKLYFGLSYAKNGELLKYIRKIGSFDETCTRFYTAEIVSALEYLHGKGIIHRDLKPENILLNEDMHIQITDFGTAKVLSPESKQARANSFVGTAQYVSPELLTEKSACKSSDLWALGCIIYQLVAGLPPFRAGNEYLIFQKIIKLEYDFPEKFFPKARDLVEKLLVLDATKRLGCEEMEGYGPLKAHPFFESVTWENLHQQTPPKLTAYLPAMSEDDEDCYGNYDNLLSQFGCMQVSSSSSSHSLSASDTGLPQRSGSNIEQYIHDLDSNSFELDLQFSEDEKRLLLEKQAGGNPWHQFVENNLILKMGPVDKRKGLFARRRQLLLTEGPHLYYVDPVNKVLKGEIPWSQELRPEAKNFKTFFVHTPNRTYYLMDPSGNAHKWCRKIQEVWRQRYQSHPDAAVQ

Compound: O=C(O)CSC(CC(=O)c1ccc(Cl)cc1)c1ccccc1 (stereo not drawn) [Compound 1]
- effect on PKCζ activity (in words) ([1]; 20 μM): no significant effect
- PKCξ (%) activity ([1]; 20 μM compound): 94%
- PKCξ (%) activity ([1]; 200 μM compound): 21%
- inhibition of PKCζ (in words) ([1]; panel, concentration not given): inhibited PKCζ
- AC50 [2]: 104 ± 58 µM
- Max. activity [2]: 1.69 ± 0.2 U/mg
- activation of PDK1 Val127Thr mutant [2]: 240%

Compound: COC(=O)CSC(CC(=O)c1ccc(Cl)cc1)c1ccccc1 (stereo not drawn) [Compound 2]
- PKCξ (%) activity ([1]; 20 μM compound): 104%
- PKCξ (%) activity ([1]; 200 μM compound): 86%

Compound: REPRILSEEEQEMFRDFDYIADWC [PIFtide, reference compound]
- AC50 [2]: 0.14 ± 0.07 µM
- Max. activity [2]: 2.36 ± 0.15 U/mg
- activation of PDK1 Val127Thr mutant [2]: 260%
